Source: paper PMC8781869, “Thioester-Containing Benzoate Derivatives with α-Glucosidase Inhibitory Activity from the Deep-Sea-Derived Fungus Talaromyces indigoticus FS688” (Marine Drugs, 2021)

Tests used:
[1] = test system: α-glucosidase from Saccharomyces cerevisiae; test: α-Glucosidase inhibition assay (pNPG substrate, absorbance at 405 nm); format: biochemical; details: for α-glucosidase inhibitory effect at a single concentration: at a concentration of 100 μM; for IC50: in vitro, PBS pH 7.0, 37 °C, triplicate, read-out: α-Glucosidase inhibitory activity IC50
Description: An […] were used to measure the circular dichroism (ECD) and the UV spectra, respectively. ECD and UV spectra were recorded at the range of 200–400 nm under N2 gas […]. IR spectra were recorded on a Shimadzu IR Affinity-1 spectrophotometer. All the NMR spectra were measured on a 600 MHz Bruker Avance-III HD spectrometer and the tetramethylsilane was used as an internal standard. HR-ESI-MS was measured on a Bruker maXis high-resolution mass spectrometer. A Shimadzu LC-20 AT (equipped with an SPD-M20A PDA detector) was used for the preparative separations. The ACE 5 PFP-C18 column (250 × 10.0 mm, 5 μm, 12 nm) was used for semi-preparative HPLC separation and the CHIRAL-MD (2)-RH column (250 × 10.0 mm, 5 μm) was used for chiral separation (Guangzhou FLM Scientific Instrument Co., Ltd, Guangzhou, China). The commercial silica gel (SiO2; 200–300 mesh; Qingdao Marine Chemical Plant, Qingdao, China) and Sephadex LH-20 gel (GE Healthcare Bio-Sciences ABSE-751, Uppsala, Sweden) were used for column chromatography. All solvents were of analytical grade (Guangzhou Chemical Regents Company, Ltd., Guangzhou, China). The natural sea salt was purchased from Guangdong Yueyan saltern. The α-glucosidase from Saccharomyces cerevisiae and p-nitrophenyl-α-d-glucopyranoside (p-NPG) used in bioassays were purchased from Sigma-Aldrich (St. Louis, MO, USA).
The method used for the α-glucosidase inhibitory activity assay was based on previously reported literature with slight modification. The pre-reaction mixture consisted of 130 μL of PBS (100 mM, pH 7.0), 30 μL of enzyme (1 U/mL) and 0.5 μL of the test compounds at different concentrations. After incubation at 37 °C for 10 min, 40 μL of pNPG was added and the mixture was further incubated at 37 °C for 15 min. Finally, the absorbance was measured at 405 nm on an automatic microplate reader. […] All experiments were carried out in triplicate.

α-glucosidase = test system: α-glucosidase; design: method as in PMID 24955555; details: previously reported screening; cited from earlier work

Structure (SMILES) | α-glucosidase inhibitory effect at a single concentration [1] | IC50 [1] | α-glucosidase inhibitor (qualitative) (α-glucosidase)
COc1c(C)c(C(=O)SC)c(O)c2c1OC(C(C)(C)O)C2 (stereo not drawn) [Compound 1, Eurothiocin C] | weak inhibitory effects | – | –
CSC(=O)c1c(C)cc(O)c(CC=C(C)C)c1O [Compound 3, Eurothiocin E] | weak inhibitory effects | > 100 µM | –
CSC(=O)c1c(C)cc(O)c(C/C=C(\C)CO)c1O [Compound 4, Eurothiocin F] | – | 33.6 µM | –
CSC(=O)c1c(C)cc2c(c1O)C[C@H](C(C)(C)O)O2 [Compound 7, eurothiocin A] | – | – | potential α-glucosidase inhibitor

Continued, in another order:

α-glucosidase inhibitory effect at a single concentration [1] | IC50 [1] | Structure (SMILES) | α-glucosidase inhibitor (qualitative) (α-glucosidase)
– | 5.4 µM | CSC(=O)c1c(C)cc2c(c1O)CC(C(C)(C)OC1OC(CO)C(O)C(O)C1O)O2 (stereo not drawn) [Compound 2, Eurothiocin D] | –
– | 72.1 µM | CSC(=O)c1c(C)cc(O)c(CCC(C)(C)O)c1O [Compound 5, Eurothiocin G] | –
weak inhibitory effects | > 100 µM | COc1cc(O)cc(C)c1C(=O)SC [Compound 6, Eurothiocin H] | –
